Reference: patent publication US4415570A, “Nicotinic acid derivatives” (Nippon Shinyaku Co. Ltd., priority 1981, dated 1983)

Tests used:
[1] = tested on: reversed passive Arthus reaction; assay: Reversed passive Arthus reaction (RPAR) inhibition, leakage area of Evans Blue; type: in vivo, rats; details: for RPAR inhibitory action: oral administration
Protocol: Activity of RPAR inhibition of the compounds of the present invention was measured in the following manner. Anti-BSA serum was obtained from rabbits that were previously administered bovine serum albumin ("BSA"). The anti-BSA serum was applied to four parts of the skin of the abdomens of rats previously treated with BSA and Evans Blue. The anti-BSA serum and the BSA and Evans Blue were administered to the rats subcutaneously. […] The local inflammation was determined by examining each of the four inflamed parts and measuring for each part the area from which there was leakage of Evans Blue. The data from the test animals were compared to the control animals, and a reduction in the leakage area of 20% or more was defined as a positive effect. The RPAR inhibition activity is reported as the number of positive effects per animal, divided by 4. Thus, two positive effects would be an RPAR of 2/4.

[2] = tested on: carrageenin edema; assay: carrageenin edema inhibiting activity; type: in vivo; details: intraperitoneal injection, 50 mg/kg
Excerpt: The RPAR inhibition activity of the compounds (I) of the present invention is not related to its anti-inflammatory activity.

[3] = Table I, 200 mg/kg body weight orally, number of positive effects (leakage area reduced 20% or more) out of 4 parts
[4] = Table 2, 500 mg/kg p.o., number of positive effects out of 4 parts
[5] = Table 2, 200 mg/kg p.o., number of positive effects out of 4 parts

O=C(Nc1nc(-c2ccc(Cl)cc2)nc(N2CCCC2)n1)c1cccnc1 [Compound 1] was tested, and the “RPAR Inhibition” value [1, 3] was 2/4.
O=C(Nc1nc(-c2ccc(Cl)cc2)nc(N2CCOCC2)n1)c1cccnc1 [Compound 2] was tested, and the “RPAR Inhibition” value [1, 3] was 2/4.
For O=C(Nc1nc(-c2ccccc2Cl)nc(N2CCCCC2)n1)c1cccnc1 [Compound 3], the “RPAR Inhibition” value [1, 3] was 2/4.
O=C(Nc1nc(-c2ccccc2Cl)nc(N2CCOCC2)n1)c1cccnc1 [Compound 4] was tested, and the “RPAR Inhibition” value [1, 3] was 2/4.
With O=C(Nc1nc(-c2ccccc2Cl)nc(N2CCCC2)n1)c1cccnc1 [Compound 5] the “RPAR Inhibition” value [1, 3] was 2/4.
With CCCCNc1nc(NC(=O)c2cccnc2)nc(-c2ccc(Cl)c(Cl)c2)n1 [Compound 6] the “RPAR Inhibition” value [1, 3] was 2/4.
CCN(CC)c1nc(NC(=O)c2cccnc2)nc(-c2ccc(Cl)c(Cl)c2)n1 [Compound 7] was tested, and the “RPAR Inhibition” value [1, 3] was 3/4.
O=C(Nc1nc(-c2cc(Cl)ccc2Cl)nc(N2CCCCC2)n1)c1cccnc1 [Compound 8] was tested, and the “RPAR Inhibition” value [1, 3] was 3/4.
For O=C(Nc1nc(-c2cc(Cl)ccc2Cl)nc(N2CCOCC2)n1)c1cccnc1 [Compound 9], the “carrageenin edema inhibiting activity” value [2] was 21%, the “RPAR inhibition activity (in words)” value [1] was “strongly inhibits RPAR” and the “RPAR Inhibition” value [1, 3] was 4/4.
In the case of CN(C)c1nc(NC(=O)c2cccnc2)nc(-c2ccc(F)cc2)n1 [Compound 10], the “RPAR Inhibition” value [1, 3] is reported as 3/4.
In the case of Nc1nc(N)nc(-c2cc(Cl)ccc2Cl)n1 [Compound 11], the “RPAR inhibition activity (in words)” value [1] is reported as “do not exhibit RPAR inhibition activity at all” and the “RPAR Inhibition” value [1, 4] is reported as 0/4.
With Nc1nc(N)nc(-c2ccc(Cl)cc2)n1 [Compound 12] the “RPAR inhibition activity (in words)” value [1] was “do not exhibit RPAR inhibition activity at all” and the “RPAR Inhibition” value [1, 4] was 0/4.
With Nc1nc(NC(=O)c2cccnc2)nc(-c2ccccc2)n1 [Compound 13] the “RPAR inhibition activity (in words)” value [1] was “little or no RPAR inhibition activity”, the “RPAR Inhibition” value [1, 5] was 0/4 and the “RPAR Inhibition” value [1, 4] was 2/4.
In the case of Nc1nc(NC(=O)c2cccnc2)nc(-c2c(Cl)cccc2Cl)n1 [Compound 14], the “RPAR Inhibition” value [1, 5] is reported as 0/4.
Nc1nc(NC(=O)c2cccnc2)nc(-c2ccc(Cl)cc2)n1 [Compound 15] was tested, and the “carrageenin edema inhibiting activity” value [2] was 56.8%, the “RPAR inhibition activity (in words)” value [1] was “no RPAR inhibition activity” and the “RPAR Inhibition” value [1, 5] was 0/4.
With Nc1nc(NC(=O)c2cccnc2)nc(-c2cccc(Cl)c2)n1 [Compound 16] the “RPAR Inhibition” value [1, 5] was 0/4.
Nc1nc(NC(=O)c2cccnc2)nc(-c2ccccc2I)n1 [Compound 17] was tested, and the “RPAR Inhibition” value [1, 5] was 1/4.
For CC(=O)Oc1ccccc1C(=O)O [aspirin], the RPAR inhibitory action ([1]; 200 mg/kg) was “no RPAR inhibitory action”.
For COc1ccc2c(c1)c(CC(=O)O)c(C)n2C(=O)c1ccc(Cl)cc1 [indomethacin], the RPAR inhibitory action ([1]; 10 mg/kg) was “no RPAR inhibitory action”.
In the case of CCCCC1C(=O)N(c2ccccc2)N(c2ccccc2)C1=O [phenylbutazone], the RPAR inhibitory action ([1]; 100 mg/kg) is reported as “no RPAR inhibitory action”.
